The values that follow come from patent publication US6875865B1, “Selected derivatives of K-252a” (Cephalon, Inc., priority 1996, dated 2005).

The test system of experiment [1] is dissociated spinal cord cultures. The experiment is described as follows: Spinal Cord ChAT Activity Assay. Type of experiment: cell-based, rat. As to the method: The effect of selected ring substituted K-252a derivatives on CHAT activity was assayed in dissociated spinal cord cultures prepared from fetal rats using the procedure described in U.S. Pat. No. 5,461,146, Columns 26 and 27, Examples 6 and 7. ChAT is the enzyme that catalyzes the synthesis of the neurotransmitter acetylcholine, and it is a specific biochemical marker for cholinergic neurons. In the spinal cord, the large majority of cholinergic neurons are motor neurons. Assay of this enzyme may thus be used as an indication of the effects of a factor, or actors, on the survival of cholinergic neurons and/or regulation of this enzyme.
(§1) Compounds which increased ChAT activity at least 120% of the control activity are considered active.

Experiment [2] concerns basal forebrain cultures. The experiment is described as follows: Basal Forebrain ChAT Activity Assay. The experiment is classed as cell-based, rat. The following applies: day six. The protocol: Compounds of the invention were assessed for their ability to promote survival and increase in ChAT activity in basal forebrain cultures. ChAT activity in these cultures is a biochemical marker for the cholinergic neurons (less than 5% of the cells in culture), which represent the major cholinergic input to the hippocampal formation, olfactory nucleus, interpeduncular nucleus, cortex, amygdala, and parts of the thalamus. […] The basal forebrain was dissected from embryonic day 17 or 18 rat embryos and the cells were […] with Dispase™ (neutral protease, Collaborative Research). Neurons were plated at 5×10^4 cells/well (1.5×10^5 cells/cm^2) in wells of 96-well plates previously coated with […] and laminin. Cells were cultured in serum-free N2 medium containing 0.05% bovine serum albumin (BSA) (Bottenetein et al., supra) at 37° in a humidified atmosphere of 5% CO2/95% air. ChAT activity was measured in vitro at day six, using a modification of the Formum procedure (supra) according to McManaman et al. (supra) and Glicksman et al. (J. Neurochem. 61:210-221, 1993).
as §1

In experiment [3] the test system is protein kinase C (PKC). Conditions: reported in the literature; cited from earlier work.
The mark [4] stands for this setting: concentration not given, tested between 10 nM and 500 nM, at least 120% of control = active.
Where [5] appears, read: concentration not given, at least 120% of control = active.

A value given as a limit tells only on which side of the number the result lay.

With `CCOC(=O)C=Cc1ccc2c(c1)c1c3c(c4c5ccccc5n5c4c1n2C1(C)OC5CC1(O)C(=O)OC)C(=O)NC3` (stereo not drawn) [Compound 12], the “ChAT Activity maximum efficacy % of Control (conc)” value (shortened to “ChAT Activity maximum efficacy %”) in experiment [1] (maximum efficacy at 300 nM) was 269 (300 nM) % of Control; in experiment [2] (maximum efficacy at 500 nM), 184 (500 nM) % of Control.

In the case of `COC(=O)C1(O)CC2OC1(C)n1c3ccc(C=Cc4ccccn4)cc3c3c4c(c5c6ccccc6n2c5c31)C(=O)NC4` (stereo not drawn) [Compound 13], the figures for the “ChAT Activity maximum efficacy %” value in experiment [1] (maximum efficacy at 30 nM) and in experiment [2] (maximum efficacy at 100 nM) were 271 (30 nM) % of Control and 167 (100 nM) % of Control, respectively.

Take `COC(=O)C1(O)CC2OC1(C)n1c3ccc(CCc4ccccn4)cc3c3c4c(c5c6ccccc6n2c5c31)C(=O)NC4` (stereo not drawn) [Compound 14]: the “ChAT Activity maximum efficacy %” value in experiment [1] (maximum efficacy at 300 nM) is recorded as 282 (300 nM) % of Control; in experiment [2] (maximum efficacy at 500 nM), 229 (500 nM) % of Control.

Take `CCSCC(=O)c1ccc2c(c1)c1c3c(c4c5ccccc5n5c4c1n2C1(C)OC5CC1(O)C(=O)OC)C(=O)NC3` (stereo not drawn) [Compound 41]: the “ChAT Activity maximum efficacy %” value in experiment [1] (maximum efficacy at 300 nM) is 204 (300 nM) % of Control; in experiment [2] (setting [4]), <120 % of Control.

As to `COC(=O)C1(O)CC2OC1(C)n1c3ccc(C(=O)CSc4nnnn4C)cc3c3c4c(c5c6cc(C(=O)CSc7nnnn7C)ccc6n2c5c31)C(=O)NC4` (stereo not drawn) [Compound 52], the “ChAT Activity maximum efficacy %” value in experiment [1] (setting [5]) and in experiment [2] (setting [4]) was <120 % of Control throughout.

For `COCCC(=O)c1ccc2c(c1)c1c3c(c4c5cc(C(=O)CCOC)ccc5n5c4c1n2C1CC(O)(C(=O)OC)C5(C)O1)CNC3=O` (stereo not drawn) [Compound 54], the “ChAT Activity maximum efficacy %” value in experiment [1] (setting [5]) is recorded as <120 % of Control; in experiment [2] (maximum efficacy at 250 nM), 167 (250 nM) % of Control.

Regarding `COC(=O)C1(O)CC2OC1(C)n1c3ccc(C(O)CCCl)cc3c3c4c(c5c6cc(C(O)CCCl)ccc6n2c5c31)C(=O)NC4` (stereo not drawn) [Compound 59], the figures for the “ChAT Activity maximum efficacy %” value in experiment [1] (maximum efficacy at 300 nM) and in experiment [2] (maximum efficacy at 250 nM) were 160 (300 nM) % of Control and 131 (250 nM) % of Control, respectively.

As to `COC(=O)C1(O)CC2OC1(C)n1c3ccc(C#CCN(C)Cc4ccccc4)cc3c3c4c(c5c6cc(Br)ccc6n2c5c31)C(=O)NC4` (stereo not drawn) [Compound 62], the “ChAT Activity maximum efficacy %” value is 235 (300 nM) % of Control in experiment [1] (maximum efficacy at 300 nM) and 202 (50 nM) % of Control in experiment [2] (maximum efficacy at 50 nM).

On to `CCC=Cc1ccc2c(c1)c1c3c(c4c5cc(C=CCC)ccc5n5c4c1n2C1CC(O)(C(=O)OC)C5(C)O1)CNC3=O` (stereo not drawn) [Compound 68], for which the figures for the “ChAT Activity maximum efficacy %” value in experiment [1] (maximum efficacy at 300 nM) and in experiment [2] (maximum efficacy at 250 nM) were 291 (300 nM) % of Control and 290 (250 nM) % of Control, respectively.

With `COC(=O)C1(O)CC2OC1(C)n1c3ccc(CCO)cc3c3c4c(c5c6cc(CCO)ccc6n2c5c31)C(=O)NC4` (stereo not drawn) [Compound 70c], the “ChAT Activity maximum efficacy %” value is recorded as 186 (300 nM) % of Control in experiment [1] (maximum efficacy at 300 nM) and 203 (250 nM) % of Control in experiment [2] (maximum efficacy at 250 nM).

Consider `COC(=O)C1(O)CC2OC1(C)n1c3ccc(CCOC(=O)c4ccncc4)cc3c3c4c(c5c6cc(CCOC(=O)c7ccncc7)ccc6n2c5c31)C(=O)NC4` (stereo not drawn) [Compound 71], for which the “ChAT Activity maximum efficacy %” value in experiment [1] (maximum efficacy at 300 nM) is recorded as 193 (300 nM) % of Control; in experiment [2] (maximum efficacy at 250 nM), 152 (250 nM) % of Control.

In the case of `COC(=O)C1(O)CC2OC1(C)n1c3ccc(CCN=[N+]=[N-])cc3c3c4c(c5c6cc(CCN=[N+]=[N-])ccc6n2c5c31)C(=O)NC4` (stereo not drawn) [Compound 81], the “ChAT Activity maximum efficacy %” value in experiment [1] (maximum efficacy at 300 nM) is reported as 131 (300 nM) % of Control; in experiment [2] (setting [4]) it was <120 % of Control.

As for `COC(=O)C1(O)CC2OC1(C)n1c3ccc(CCSC)cc3c3c4c(c5c6cc(CCSC)ccc6n2c5c31)C(=O)NC4` (stereo not drawn) [Compound 87], the “ChAT Activity maximum efficacy %” value in experiment [1] (maximum efficacy at 300 nM) is on record as 294 (300 nM) % of Control; in experiment [2] (maximum efficacy at 250 nM), 262 (250 nM) % of Control.

For `CCSCCc1ccc2c(c1)c1c3c(c4c5cc(CCSCC)ccc5n5c4c1n2C1CC(O)(C(=O)OC)C5(C)O1)CNC3=O` (stereo not drawn) [Compound 88], the “ChAT Activity maximum efficacy %” value in experiment [1] (maximum efficacy at 300 nM) was 190 (300 nM) % of Control; in experiment [2] (setting [4]), <120 % of Control.

`COC(=O)C1(O)CC2OC1(C)n1c3ccc(CCSc4ccc(O)cc4)cc3c3c4c(c5c6cc(CCSc7ccc(O)cc7)ccc6n2c5c31)C(=O)NC4` (stereo not drawn) [Compound 91]: the “ChAT Activity maximum efficacy %” value in experiment [1] (setting [5]) and in experiment [2] (setting [4]) was <120 % of Control each time.

Take `COC(=O)C1(O)CC2OC1(C)n1c3ccc(CCSc4ccccn4)cc3c3c4c(c5c6cc(CCSc7ccccn7)ccc6n2c5c31)C(=O)NC4` (stereo not drawn) [Compound 94]: the “ChAT Activity maximum efficacy %” value in experiment [1] (maximum efficacy at 300 nM) is listed as 152 (300 nM) % of Control; in experiment [2] (maximum efficacy at 250 nM) it was 166 (250 nM) % of Control.

In the case of `COC(=O)C1(O)CC2OC1(C)n1c3ccc(CCCSC)cc3c3c4c(c5c6cc(CCCSC)ccc6n2c5c31)C(=O)NC4` (stereo not drawn) [Compound 95], the “ChAT Activity maximum efficacy %” value in experiment [1] (maximum efficacy at 300 nM) is given as 272 (300 nM) % of Control; in experiment [2] (maximum efficacy at 250 nM) it was 239 (250 nM) % of Control.

Take `COC(=O)CCc1ccc2c(c1)c1c3c(c4c5cc(CCC(=O)OC)ccc5n5c4c1n2C1CC(O)(C(=O)OC)C5(C)O1)CNC3=O` (stereo not drawn) [Compound 139]: the “ChAT Activity maximum efficacy %” value in experiment [1] (setting [5]) is recorded as <120 % of Control.

As to `CCOC(=O)CCc1ccc2c(c1)c1c3c(c4c5cc(CCC(=O)OCC)ccc5n5c4c1n2C1CC(O)(C(=O)OC)C5(C)O1)CNC3=O` (stereo not drawn) [Compound 140], the “ChAT Activity maximum efficacy %” value in experiment [1] (maximum efficacy at 300 nM) is reported as 156 (300 nM) % of Control.

With `COC(=O)C1(O)CC2OC1(C)n1c3ccc(C=Cc4ccccn4)cc3c3c4c(c5c6cc(Br)ccc6n2c5c31)C(=O)NC4` (stereo not drawn) [Compound 142], the “ChAT Activity maximum efficacy %” value in experiment [1] (maximum efficacy at 300 nM) is 223 (300 nM) % of Control.

Take `COC(=O)C1(O)CC2OC1(C)n1c3ccc(CCc4ccccn4)cc3c3c4c(c5c6cc(Br)ccc6n2c5c31)C(=O)NC4` (stereo not drawn) [Compound 143]: in experiment [1] (maximum efficacy at 300 nM), the “ChAT Activity maximum efficacy %” value was 264 (300 nM) % of Control.

For the compound `COC(=O)C1(O)CC2OC1(C)n1c3ccc(C=Cc4ccncc4)cc3c3c4c(c5c6cc(C=Cc7ccncc7)ccc6n2c5c31)C(=O)NC4` (stereo not drawn) [Compound 145], the “ChAT Activity maximum efficacy %” value in experiment [1] (maximum efficacy at 300 nM) was 129 (300 nM) % of Control.

For the compound `COC(=O)C1(O)CC2OC1(C)n1c3ccc(CCc4ccncc4)cc3c3c4c(c5c6cc(CCc7ccncc7)ccc6n2c5c31)C(=O)NC4` (stereo not drawn) [Compound 146], the “ChAT Activity maximum efficacy %” value in experiment [1] (maximum efficacy at 300 nM) was 153 (300 nM) % of Control.

`COC(=O)C1(O)CC2OC1(C)n1c3ccccc3c3c4c(c5c6cc(C=Cc7ncc[nH]7)ccc6n2c5c31)C(=O)NC4` (stereo not drawn) [Compound 148]: the “ChAT Activity maximum efficacy %” value in experiment [1] (maximum efficacy at 300 nM) is reported as 206 (300 nM) % of Control.

Regarding `COCOCc1ccc2c(c1)c1c3c(c4c5ccccc5n5c4c1n2C1CC(O)(C(=O)OC)C5(C)O1)CNC3=O` (stereo not drawn) [Compound 154], the “ChAT Activity maximum efficacy %” value in experiment [1] (maximum efficacy at 300 nM) is on record as 177 (300 nM) % of Control.

`COCOCc1ccc2c(c1)c1c3c(c4c5cc(COCOC)ccc5n5c4c1n2C1CC(O)(C(=O)OC)C5(C)O1)CNC3=O` (stereo not drawn) [Compound 155]: the “ChAT Activity maximum efficacy %” value in experiment [1] (maximum efficacy at 300 nM) is recorded as 197 (300 nM) % of Control.

`CCOCOCc1ccc2c(c1)c1c3c(c4c5cc(COCOCC)ccc5n5c4c1n2C1CC(O)(C(=O)OC)C5(C)O1)CNC3=O` (stereo not drawn) [Compound 156]: the “ChAT Activity maximum efficacy %” value in experiment [1] (maximum efficacy at 300 nM) is on record as 217 (300 nM) % of Control.

Regarding `COC(=O)C1(O)CC2OC1(C)n1c3ccccc3c3c4c(c5c6ccccc6n2c5c31)C(=O)NC4` (stereo not drawn) [Compound K-252a, K-252a], the “inhibition of protein kinase C (PKC)” value in experiment [3] was “strongly inhibits”.
